This note sets out measurements from US12252524B2, “GIP/GLP1 co-agonist compounds” (Eli Lilly and Company, priority 2018, dated 2025).

For one experiment, the target named is human GLP-1R (Homo sapiens, UniProt P43220). Nature of the experiment: [125I]-GLP-1 binding (SPA), human GLP-1 receptor. Details: expressed in transfected cells; crude membranes. The settings on record: read-out: hGLP1R Ki, (nM) (SEM, n). Summed up:
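Assay buffer: HEPES 25 mM, pH 7.4, CaCl2 2.5 mM, MgCl2 1 mM, with EDTA-free protease inhibitors. Receptor came from crude cell membranes prepared by homogenization and centrifugation at 4° C. IC50s came from four-parameter fits (maximum, minimum, IC50, Hill slope) and were expressed as Ki geometric means with SEM.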

The target of experiment [1] is T1, gastric inhibitory peptide receptor (GIPR) (Homo sapiens, UniProt P48546).
T1 sequence (P48546 22-466): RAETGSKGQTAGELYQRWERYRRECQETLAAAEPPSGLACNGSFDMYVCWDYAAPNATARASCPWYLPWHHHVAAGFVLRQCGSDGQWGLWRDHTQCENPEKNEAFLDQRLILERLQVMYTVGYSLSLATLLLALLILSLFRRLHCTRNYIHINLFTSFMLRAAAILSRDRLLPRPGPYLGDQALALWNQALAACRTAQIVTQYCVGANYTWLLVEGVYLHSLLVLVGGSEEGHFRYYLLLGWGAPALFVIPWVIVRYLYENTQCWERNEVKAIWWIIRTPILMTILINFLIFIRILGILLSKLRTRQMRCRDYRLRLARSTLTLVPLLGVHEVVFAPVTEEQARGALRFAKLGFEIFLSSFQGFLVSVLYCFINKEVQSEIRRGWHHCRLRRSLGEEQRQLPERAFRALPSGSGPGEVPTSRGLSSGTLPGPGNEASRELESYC
Briefly: cAMP pharmacological functional assay in presence of casein, hGIPR. Type of experiment: cell-based. The settings on record: HEK293 cells expressing hGIPR, 0.1% Casein, geometric mean; read-out: hGIPR cAMP Rel EC50 nM (SEM, n).

A further experiment addresses T2, human Gcg receptor (Homo sapiens, UniProt P47871).
T2 construct: expressed in transfected cells; crude membranes
Nature of the experiment: [125I]-Glucagon binding (SPA), human Gcg receptor. The settings on record: read-out: hGLcgR Ki, nM (SEM, n). In a few lines: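 Scintillation counts are taken after membranes and WGA beads incubate and settle for 12 hours at room temperature. Buffer is 25 mM HEPES, pH 7.4, with CaCl2, MgCl2, bacitracin and Tween-20. Ki values, from four-parameter IC50 fits, are geometric means over independent days.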

Experiment [2] concerns the target human GLP-1 receptor (GLP-1R) (Homo sapiens, UniProt P43220). Nature of the experiment: cAMP pharmacological functional assay in presence of casein, hGLP-1R. Type of experiment: cell-based. The settings on record: HEK293 cells expressing hGLP-1R, 0.1% Casein, geometric mean; read-out: hGLP1R cAMP Rel EC50 nM (SEM, n).
A further experiment addresses T3, human GIP receptor (Homo sapiens, UniProt P48546).
T3 construct: expressed in transfected cells; crude membranes
T3 sequence (P48546 22-466): T1 sequence (P48546 22-466)
Briefly: [125I]-GIP binding (SPA), human GIP receptor. As to conditions: read-out: hGIPR Ki, nM (SEM, n).

Numbered stars: 1 amine (or outer) side, 2 acyl side, 3 side chain; on linkers, the order of the positions; unused ones are H or OH. Square brackets hold non-standard residues; d marks the D form. Side chains are listed from the residue outwards. Peptide text beside a SMILES is read from it. * marks the point of attachment. C20 diacid = O=C(O)CCCCCCCCCCCCCCCCCCC(=O)*; C18 diacid = O=C(O)CCCCCCCCCCCCCCCCC(=O)*; αMePhe(2-F) = C[C@](N)(Cc1ccccc1F)C(=O)O; γGlu = O=C(O)[C@H](CCC(=O)[*:2])N[*:1]; αMeF = C[C@](N)(Cc1ccccc1)C(=O)O; αMeL = CC(C)C[C@](C)(N)C(=O)O; AEEA = NCCOCCOCC(=O)O; Aib = CC(C)(N)C(=O)O

T2 sequence (P47871 26-477): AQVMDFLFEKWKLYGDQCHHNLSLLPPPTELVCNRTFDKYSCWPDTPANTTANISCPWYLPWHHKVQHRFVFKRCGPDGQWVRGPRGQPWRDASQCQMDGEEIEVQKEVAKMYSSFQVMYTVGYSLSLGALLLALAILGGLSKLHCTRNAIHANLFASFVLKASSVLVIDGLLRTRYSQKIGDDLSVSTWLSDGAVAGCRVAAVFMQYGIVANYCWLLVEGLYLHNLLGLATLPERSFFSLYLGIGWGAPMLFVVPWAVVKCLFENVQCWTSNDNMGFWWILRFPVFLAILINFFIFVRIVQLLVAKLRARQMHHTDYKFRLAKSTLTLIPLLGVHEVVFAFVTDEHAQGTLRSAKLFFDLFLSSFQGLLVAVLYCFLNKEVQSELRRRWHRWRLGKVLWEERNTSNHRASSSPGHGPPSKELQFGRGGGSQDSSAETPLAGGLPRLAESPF
Chain of human GLP-1 receptor (GLP-1R) (P43220 24-463): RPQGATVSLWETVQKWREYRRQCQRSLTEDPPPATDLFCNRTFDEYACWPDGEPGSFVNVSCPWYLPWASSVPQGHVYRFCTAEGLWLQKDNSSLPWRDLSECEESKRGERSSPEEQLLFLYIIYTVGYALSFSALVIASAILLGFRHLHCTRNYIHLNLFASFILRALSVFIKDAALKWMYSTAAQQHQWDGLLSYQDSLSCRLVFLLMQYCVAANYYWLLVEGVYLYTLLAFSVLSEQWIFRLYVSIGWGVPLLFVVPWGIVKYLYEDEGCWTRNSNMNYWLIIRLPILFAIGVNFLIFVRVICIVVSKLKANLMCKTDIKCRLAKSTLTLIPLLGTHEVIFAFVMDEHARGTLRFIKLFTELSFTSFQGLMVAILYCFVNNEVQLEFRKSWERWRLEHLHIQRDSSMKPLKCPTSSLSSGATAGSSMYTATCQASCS
Chain of human GLP-1R (P43220 24-463): as above

With `CC[C@H](C)[C@H](NC(=O)[C@H](CC(C)C)NC(=O)[C@H](Cc1ccc(O)cc1)NC(=O)[C@H](CCC(=O)O)NC(=O)[C@@H](NC(=O)[C@H](Cc1ccccc1)NC(=O)[C@H](C)NC(=O)C(C)(C)NC(=O)[C@H](CCC(N)=O)NC(=O)[C@H](C)NC(=O)[C@H](CCCCNC(=O)COCCOCCNC(=O)COCCOCCNC(=O)CC[C@H](NC(=O)CCCCCCCCCCCCCCCCCCC(=O)O)C(=O)O)NC(=O)[C@H](CCCCN)NC(=O)[C@H](CC(=O)O)NC(=O)[C@H](CC(C)C)NC(=O)[C@](C)(CC(C)C)NC(=O)[C@@H](NC(=O)[C@H](CO)NC(=O)[C@H](Cc1ccc(O)cc1)NC(=O)[C@H](CC(=O)O)NC(=O)[C@H](CO)NC(=O)[C@@H](NC(=O)[C@](C)(Cc1ccccc1)NC(=O)[C@@H](NC(=O)CNC(=O)[C@H](CCC(=O)O)NC(=O)C(C)(C)NC(=O)[C@@H](N)Cc1ccc(O)cc1)[C@@H](C)O)[C@@H](C)O)[C@@H](C)CC)[C@@H](C)CC)C(=O)N[C@@H](CCC(=O)O)C(=O)N[C@@H](C)C(=O)NCC(=O)N1CCC[C@H]1C(=O)N[C@@H](CO)C(=O)N[C@@H](CO)C(=O)NCC(=O)N[C@@H](C)C(=O)N1CCC[C@H]1C(=O)N1CCC[C@H]1C(=O)N1CCC[C@H]1C(=O)N[C@@H](CO)C(N)=O` [Example 126] (H-Y[Aib]EGT[αMeF]TSDYSI[αMeL]LDKK([AEEA-AEEA-γGlu-C20 diacid])AQ[Aib]AFIEYLIEAGPSSGAPPPS-NH2; N-terminus assumed), the Ki (commonly a measure of affinity in units of concentration, obtained from inhibition or displacement) is 1.46 nM on human GLP-1R, 101 nM on human Gcg receptor and 0.0644 nM on human GIP receptor. The values for the concentration giving a half-maximal response (EC50) in experiment [1] and in experiment [2] were 0.0685 nM and 0.0715 nM, respectively.

`CC[C@H](C)[C@H](NC(=O)[C@H](CC(C)C)NC(=O)[C@H](Cc1ccc(O)cc1)NC(=O)[C@H](CCC(=O)O)NC(=O)[C@@H](NC(=O)[C@H](Cc1ccccc1)NC(=O)[C@H](C)NC(=O)[C@H](CCCCN)NC(=O)[C@H](CCC(N)=O)NC(=O)[C@H](C)NC(=O)[C@H](CCCCNC(=O)COCCOCCNC(=O)COCCOCCNC(=O)CC[C@H](NC(=O)CCCCCCCCCCCCCCCCC(=O)O)C(=O)O)NC(=O)[C@H](CCCCN)NC(=O)[C@H](CC(=O)O)NC(=O)[C@H](CC(C)C)NC(=O)[C@H](CC(C)C)NC(=O)[C@@H](NC(=O)[C@H](CO)NC(=O)[C@H](Cc1ccc(O)cc1)NC(=O)[C@H](CC(=O)O)NC(=O)[C@H](CO)NC(=O)[C@@H](NC(=O)[C@H](Cc1ccccc1)NC(=O)[C@@H](NC(=O)CNC(=O)[C@H](CCC(=O)O)NC(=O)C(C)(C)NC(=O)[C@@H](N)Cc1ccc(O)cc1)[C@@H](C)O)[C@@H](C)O)[C@@H](C)CC)[C@@H](C)CC)C(=O)N[C@@H](CCC(=O)O)C(=O)NCC(=O)NCC(=O)N1CCC[C@H]1C(=O)N[C@@H](CO)C(=O)N[C@@H](CO)C(=O)NCC(N)=O` [Example 296] (H-Y[Aib]EGTFTSDYSILLDKK([AEEA-AEEA-γGlu-C18 diacid])AQKAFIEYLIEGGPSSG-NH2): the Ki at human GLP-1R is 3.33 nM; on human Gcg receptor it was greater than 1000 nM; at human GIP receptor, 0.444 nM. Also, the results for the EC50 in experiment [1] and in experiment [2] were 0.198 nM and 0.0867 nM, respectively.

In the case of `CC[C@H](C)[C@H](NC(=O)[C@H](CC(C)C)NC(=O)[C@H](Cc1ccc(O)cc1)NC(=O)[C@@H](CCC(=O)O)NC(=O)[C@@H](NC(=O)[C@H](Cc1ccccc1)NC(=O)[C@H](CCC(=O)O)NC(=O)C(C)(C)NC(=O)[C@H](CCC(N)=O)NC(=O)[C@H](C)NC(=O)[C@H](CCCCNC(=O)COCCOCCNC(=O)COCCOCCNC(=O)CC[C@H](NC(=O)CCCCCCCCCCCCCCCCC(=O)O)C(=O)O)NC(=O)[C@H](CCCCN)NC(=O)[C@H](CC(=O)O)NC(=O)[C@H](CC(C)C)NC(=O)C(C)(CC(C)C)NC(=O)[C@@H](NC(=O)[C@H](CO)NC(=O)[C@H](Cc1ccc(O)cc1)NC(=O)[C@H](CC(=O)O)NC(=O)[C@H](CO)NC(=O)[C@@H](NC(=O)C(C)(Cc1ccccc1F)NC(=O)[C@@H](NC(=O)CNC(=O)[C@H](CCC(=O)O)NC(=O)C(C)(C)NC(=O)[C@@H](N)Cc1ccc(O)cc1)[C@@H](C)O)[C@@H](C)O)[C@@H](C)CC)[C@@H](C)CC)C(=O)N[C@@H](CCC(=O)O)C(=O)NCC(=O)NCC(=O)N1CCC[C@H]1C(=O)N[C@@H](CO)C(=O)N[C@@H](CO)C(=O)NCC(=O)N[C@@H](C)C(=O)N1CCC[C@H]1C(=O)N1CCC[C@H]1C(=O)N1CCC[C@H]1C(=O)N[C@@H](CO)C(N)=O` (stereo partly shown) [Example 231], the figures for the Ki on human GLP-1R, on human Gcg receptor and at human GIP receptor were 3.03 nM, 440 nM and 0.0394 nM, respectively. Moreover, the figures for the EC50 in experiment [1] and in experiment [2] were 0.0253 nM and 0.0611 nM, respectively.

On to `CC[C@H](C)[C@H](NC(=O)[C@H](CCCCN)NC(=O)[C@H](CC(=O)O)NC(=O)[C@H](CC(C)C)NC(=O)[C@H](CC(C)C)NC(=O)[C@@H](NC(=O)[C@H](CO)NC(=O)[C@H](Cc1ccc(O)cc1)NC(=O)[C@H](CC(=O)O)NC(=O)[C@H](CO)NC(=O)[C@@H](NC(=O)[C@H](Cc1ccccc1)NC(=O)[C@@H](NC(=O)CNC(=O)[C@H](CCC(=O)O)NC(=O)C(C)(C)NC(=O)[C@@H](N)Cc1ccc(O)cc1)[C@@H](C)O)[C@@H](C)O)[C@@H](C)CC)C(=O)N[C@@H](C)C(=O)N[C@@H](CCC(N)=O)C(=O)NC(C)(C)C(=O)N[C@@H](C)C(=O)N[C@@H](Cc1ccccc1)C(=O)N[C@H](C(=O)N[C@@H](CCC(=O)O)C(=O)N[C@@H](Cc1ccc(O)cc1)C(=O)N[C@@H](CC(C)C)C(=O)N[C@H](C(=O)N[C@@H](CCC(=O)O)C(=O)NCC(=O)NCC(=O)N1CCC[C@H]1C(=O)N[C@@H](CO)C(=O)N[C@@H](CO)C(=O)N[C@@H](CCCCNC(=O)COCCOCCNC(=O)COCCOCCNC(=O)CC[C@H](NC(=O)CCCCCCCCCCCCCCCCCCC(=O)O)C(=O)O)C(=O)N[C@@H](C)C(=O)N1CCC[C@H]1C(=O)N1CCC[C@H]1C(=O)N1CCC[C@H]1C(=O)N[C@@H](CO)C(N)=O)[C@@H](C)CC)[C@@H](C)CC` [Example 43] (H-Y[Aib]EGTFTSDYSILLDKIAQ[Aib]AFIEYLIEGGPSSK([AEEA-AEEA-γGlu-C20 diacid])APPPS-NH2; N-terminus assumed), for which the results for the Ki on human GLP-1R, at human Gcg receptor and on human GIP receptor were 11.8 nM, 134 nM and 0.101 nM, respectively. Besides, the figures for the EC50 in experiment [1] and in experiment [2] were 0.112 nM and 0.862 nM, respectively.

In the case of `CC[C@H](C)[C@H](NC(=O)[C@H](CC(C)C)NC(=O)[C@H](Cc1ccc(O)cc1)NC(=O)[C@@H](NC(=O)[C@@H](NC(=O)[C@H](Cc1ccccc1)NC(=O)[C@H](CCC(=O)O)NC(=O)C(C)(C)NC(=O)[C@H](CCC(N)=O)NC(=O)[C@H](C)NC(=O)[C@H](CCCCNC(=O)COCCOCCNC(=O)COCCOCCNC(=O)CC[C@H](NC(=O)CCCCCCCCCCCCCCCCCCC(=O)O)C(=O)O)NC(=O)[C@H](CCC(=O)O)NC(=O)[C@H](CC(=O)O)NC(=O)[C@H](CC(C)C)NC(=O)[C@](C)(CC(C)C)NC(=O)[C@@H](NC(=O)[C@H](CO)NC(=O)[C@H](Cc1ccc(O)cc1)NC(=O)[C@H](CC(=O)O)NC(=O)[C@H](CO)NC(=O)[C@@H](NC(=O)[C@](C)(Cc1ccccc1F)NC(=O)[C@@H](NC(=O)CNC(=O)[C@H](CCC(=O)O)NC(=O)C(C)(C)NC(=O)[C@@H](N)Cc1ccc(O)cc1)[C@@H](C)O)[C@@H](C)O)[C@@H](C)CC)[C@@H](C)CC)C(C)C)C(=O)N[C@@H](CCC(=O)O)C(=O)NCC(=O)NCC(=O)N1CCC[C@H]1C(=O)N[C@@H](CO)C(=O)N[C@@H](CO)C(=O)NCC(=O)N[C@@H](C)C(=O)N1CCC[C@H]1C(=O)N1CCC[C@H]1C(=O)N1CCC[C@H]1C(=O)N[C@@H](CO)C(N)=O` [Example 149] (H-Y[Aib]EGT[αMePhe(2-F)]TSDYSI[αMeL]LDEK([AEEA-AEEA-γGlu-C20 diacid])AQ[Aib]EFIVYLIEGGPSSGAPPPS-NH2), the figures for the Ki on human GLP-1R, on human Gcg receptor and at human GIP receptor were 26.1 nM, 127 nM and 0.0708 nM, respectively. In addition, the EC50 (as a rule, the concentration needed to bring the measured effect to its halfway point) in experiment [1] amounted to 0.0711 nM; in experiment [2] it was 0.0916 nM.
